The target of this test is Chaperone protein DnaK (Escherichia coli (strain K12)) (UniProt P0A6Y8). Description: E. coli DnaK SBD ligand binding – biophysical, NMR, chaperone (AID 1033). As to conditions: Purified DnaK SBD.

The source of these data is PubChem BioAssay AID1033 (Sanford-Burnham Center for Chemical Genomics, 2008).

Active and inactive are the calls of the source. No rule for the calls is given here. A value given as a limit tells only on which side of the number the result lay.

Chaperone protein DnaK (Escherichia coli (strain K12)), sequence (P0A6Y8 whole entry, looked up): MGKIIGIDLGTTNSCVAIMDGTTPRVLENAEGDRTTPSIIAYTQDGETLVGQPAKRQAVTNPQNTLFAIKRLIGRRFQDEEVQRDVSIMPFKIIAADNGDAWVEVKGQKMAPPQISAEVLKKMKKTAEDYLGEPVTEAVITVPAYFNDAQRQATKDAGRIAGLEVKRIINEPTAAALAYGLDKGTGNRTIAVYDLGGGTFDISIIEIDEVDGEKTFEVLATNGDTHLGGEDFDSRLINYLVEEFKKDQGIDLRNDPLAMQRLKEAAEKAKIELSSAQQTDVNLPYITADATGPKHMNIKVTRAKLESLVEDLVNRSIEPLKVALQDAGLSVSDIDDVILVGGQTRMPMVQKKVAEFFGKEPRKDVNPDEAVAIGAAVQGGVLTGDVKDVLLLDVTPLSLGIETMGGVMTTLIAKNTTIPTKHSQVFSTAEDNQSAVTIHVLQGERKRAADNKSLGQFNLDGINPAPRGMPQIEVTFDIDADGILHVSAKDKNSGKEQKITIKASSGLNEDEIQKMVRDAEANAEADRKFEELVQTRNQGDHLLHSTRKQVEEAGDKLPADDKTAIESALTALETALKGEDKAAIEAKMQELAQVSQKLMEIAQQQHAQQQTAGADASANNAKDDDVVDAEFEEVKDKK

For `O=c1[nH]cc(NCc2ccccc2)c(=O)[nH]1`, the Kd (usually the free concentration of one partner at which half of the binding sites on the other are occupied at equilibrium, for simple one-to-one binding) was > 4 mM (inactive).
Next, `Cc1cc(NC(=O)NCCCSc2nncn2C)no1`: > 4 mM (inactive); `O=C(O)[C@H](O)[C@@](O)(Cc1ccc(O)cc1)C(=O)O`: > 4 mM (inactive); `C/C=C(/C)C(=O)O[C@@H]1[C@H](OC(C)=O)[C@@]2(CO)C(CC1(C)C)C1=CCC3[C@@]4(C)CC[C@H](O[C@@H]5O[C@H](C(=O)O)[C@@H](O[C@@H]6O[C@H](CO)[C@@H](O)[C@H](O)[C@H]6O)[C@H](O)[C@H]5O[C@@H]5O[C@H](CO)[C@@H](O)[C@H](O)[C@H]5O)[C@](C)(CO)C4CC[C@@]3(C)[C@]1(C)C[C@H]2O` (stereo not given in full): > 4 mM (inactive).
Consider `O=c1[nH]cc(NC(=S)N2CCOCC2)c(=O)[nH]1`, for which the Kd was > 4 mM (inactive).
Next, `NC(=O)C1(S(=O)(=O)c2ccccc2)CC1`: > 4 mM (inactive); `c1ccc(-c2csc3ncn4nnnc4c23)cc1`: > 4 mM (inactive); `NCc1ccc2c(c1)CCO2`: > 4 mM (inactive).
For `Cc1cc(C(=O)Nc2sc3c(c2C#N)CCC3)no1` the value was > 4 mM (inactive); for `C=CC(C1=CC(=O)C=CC1=O)c1ccccc1` (stereo not given), > 4 mM (inactive); for `COC(=O)C1CSCC1=O` (stereo not given), > 4 mM (inactive).
For `O=C(O)c1ccc(N2CCOCC2)nc1` the value was > 4 mM (inactive); for `CCCn1cnc2sc(C(N)=O)c(C)c2c1=O`, > 4 mM (inactive); for `Nc1nc(-c2ccccc2)cc(=O)[nH]1`, > 4 mM (inactive).
Regarding `O=P(O)(Cc1ccccc1)c1ccccc1`, the Kd was > 4 mM (inactive).
As for `Cn1nc(C(=O)NCc2cccnc2)c2ccccc2c1=O`, the Kd is > 4 mM (inactive).
For `Cc1nccn1CCC(=O)O` the value was > 4 mM (inactive); for `CC1(C)C(=O)N(O)C(C)(C)C(=O)N1O`, > 4 mM (inactive); for `O=C(O)CN(CCCc1ccccc1)CC(=O)O`, > 4 mM (inactive).
Next, `CC1(C)CCC(C)(C)c2cc(C(=O)O)ccc21`: > 4 mM (inactive).
Next, `CCNC(=S)N1CCCC(C(N)=O)C1` (stereo not given): > 4 mM (inactive); `O=C(Nc1ccc(F)cc1F)c1ccco1`: > 4 mM (inactive).
Take `Nc1nc2ccccc2n1CCN1CCCC1`: the Kd is > 4 mM (inactive).
Consider `Cc1nc2ccccc2c(=O)n1CCCO`, for which the Kd was > 4 mM (inactive).
Next, `Cc1cc(NC(=O)c2ccccc2C(=O)O)no1`: > 4 mM (inactive); `Cc1cccc(C)c1N1C(=O)CCC1=O`: > 4 mM (inactive).
For `Cc1cc(OC(=O)c2c(C)cc(O)cc2O)cc(O)c1C(=O)O` the value was > 4 mM (inactive); for `Cn1c(O)c(C2=NC(=S)NC2=O)c2ccccc21`, > 4 mM (inactive).
Take `O=C1CSC(=Nc2cccc(C(F)(F)F)c2)N1`: the Kd was > 4 mM (inactive).
Next, `Cc1nc(-c2ccc(C(=O)O)s2)cs1`: > 4 mM (inactive).
Next, `O=C(c1ccc(Cl)c(F)c1F)N1CCCC1`: > 4 mM (inactive); `Cc1ccc(N2C(=O)C3C4C=CC(O4)C3C2=O)cc1` (stereo not given): > 4 mM (inactive); `Cc1ccc(C(=O)N2CCC(C(N)=O)CC2)c(Cl)c1`: > 4 mM (inactive).
For `O=C1CCC(c2cccs2)=NN1` the value was > 4 mM (inactive).
As for `Cc1cc(C)n2nc(NCc3ccccc3)nc2n1`, the Kd is > 4 mM (inactive).
For `Cc1cc(C(=O)N2CCN(c3ncccn3)CC2)cs1` the value was > 4 mM (inactive).
For `Cc1c(C(=O)O)cnn1-c1ccccc1` the value was > 4 mM (inactive).
For `Cc1n[nH]c(=S)[nH]c1=O` the value was > 4 mM (inactive); for `CCOc1nc(C)ccc1-c1noc(-c2ccncc2)n1`, > 4 mM (inactive).
For `OCc1ccc2c(c1)CCO2`, the Kd is > 4 mM (inactive).
Next, `Cc1cc(C(=O)Nc2sc(C)c(C)c2C#N)no1`: > 4 mM (inactive).
Next, `COc1ccccc1NC(N)=S`: > 4 mM (inactive); `COc1c2ccoc2nc2c(OC)c(OCC(O)C(C)(C)O)ccc12` (stereo not given): > 4 mM (inactive).
As for `Nc1ccc(Cl)nn1`, the Kd was > 4 mM (inactive).
Next, `NC(=O)CSc1nc2ccccc2o1`: > 4 mM (inactive); `CSc1nnc2c(n1)OC=Nc1ccccc1-2`: > 4 mM (inactive).
For `O=C(O)Cc1n[nH]c(=O)c2ccccc12` the value was > 4 mM (inactive).
On to `O=C1NC(=Nc2ccc(O)cc2)S/C1=C/c1ccco1`, for which the Kd is > 4 mM (inactive).
Next, `C=CC(C1=CC(=O)C(OC)=CC1=O)c1ccccc1` (stereo not given): > 4 mM (inactive); `O=C(NCc1ccco1)c1ccc(=O)[nH]c1`: > 4 mM (inactive).
For `NC(=O)NC(=O)Nc1ccc(Cl)cc1` the value was > 4 mM (inactive); for `c1cncc(Nc2nc(-c3cccnc3)cs2)c1`, > 4 mM (inactive).
Next, `CCc1cc(=O)[nH]c(SCC(=O)NCCOC)n1`: > 4 mM (inactive); `CN(C)C(=O)CSc1nc(N)cc(=O)[nH]1`: > 4 mM (inactive).
As to `Nn1cnn2c(SCc3ccccc3)nnc12`, the Kd is > 4 mM (inactive).
With `O=C(Nc1cnccn1)c1cccnc1`, the Kd was > 4 mM (inactive).
Next, `Nc1nc(-c2ccc(O)cc2)cs1`: > 4 mM (inactive); `CCCc1cc(=O)[nH]c2nnc(SCC(C)=O)n12`: > 4 mM (inactive); `COc1c2c(c(CC=C(C)C)c3oc(=O)c(-c4ccc(O)cc4)c(O)c13)OC(C)(C)C=C2`: > 4 mM (inactive).
Next, `CC(C)NC1CS(=O)(=O)CC1O` (stereo not given): > 4 mM (inactive).
For `Nc1ccccc1-c1nc2ccccc2[nH]1` the value was > 4 mM (inactive).
Take `CCOC(=O)c1sc(SC)c2c1CCCC2O` (stereo not given): the Kd was > 4 mM (inactive).
For `CC(C)(C)CC(=O)N1CCC(C(N)=O)CC1` the value was > 4 mM (inactive); for `NCc1ccc(-c2cccs2)cc1`, > 4 mM (inactive); for `COc1c2ccccc2nc2occc12`, > 4 mM (inactive).
For `CSc1nc2[nH]ncc2c(=O)[nH]1` the value was > 4 mM (inactive); for `CC(=O)NC(c1ccccc1)c1cccnc1` (stereo not given), > 4 mM (inactive); for `COC(=O)C(O)c1ccccc1` (stereo not given), > 4 mM (inactive).
With `O=C(NCN1CCOCC1)c1cnccn1`, the Kd is > 4 mM (inactive).
Next, `NC(=O)CC1Sc2ccccc2NC1=O` (stereo not given): > 4 mM (inactive); `CCC1=Nc2ccccc2-c2nnc(SC)nc2O1`: > 4 mM (inactive); `O=C1CC(c2c[nH]c3ccccc23)C(=O)N1` (stereo not given): > 4 mM (inactive).
For `Cc1c(CCO)c(=O)n2c([nH]c3ccccc32)c1C#N` the value was > 4 mM (inactive); for `O=C1CCCN1C(=O)CN1CCOCC1`, > 4 mM (inactive).
For `O=C(Nc1c[nH]c(=O)[nH]c1=O)c1cccs1` the value was > 4 mM (inactive); for `CC(=O)Nc1ccc(NC(=O)N2CCOCC2)cc1`, > 4 mM (inactive).
For `O=C1c2ccncc2C(=O)N1CNc1ccccn1`, the Kd was > 4 mM (inactive).
For `CCc1nnsc1C(=O)Nc1nccs1` the value was > 4 mM (inactive); for `O=C(Oc1ccc2c(c1)OCC2=O)c1ccccc1`, > 4 mM (inactive); for `COc1ccc2[nH]cc(CN(C)C)c2c1`, > 4 mM (inactive).
For `Cc1ccc(NC(=O)CC2NCCNC2=O)c(C)c1` (stereo not given) the value was > 4 mM (inactive); for `CNc1nc(N)c(C(=O)C(C)(C)C)s1`, > 4 mM (inactive); for `Cc1cccc(NC(=O)CN2C(=O)CNC2=O)c1`, > 4 mM (inactive).
Next, `COc1cc(O)c2c(=O)cc(-c3ccc(OC)c(-c4c(O)cc(O)c5c(=O)cc(-c6ccc(O)cc6)oc45)c3)oc2c1`: > 4 mM (inactive).
With `NC(=O)Cn1cnc2ccccc21`, the Kd is > 4 mM (inactive).
Next, `CC1=CCc2c(cc3oc(C)cc(=O)c3c2O)OC1`: > 4 mM (inactive).
For `Cc1cc(=O)[nH]c(N2CCN(Cc3ccccc3)CC2)n1` the value was > 4 mM (inactive).
Next, `OCc1ccc(N2CCOCC2)nc1`: > 4 mM (inactive); `COC(=O)c1cc2cc(N)ccc2s1`: > 4 mM (inactive).
Regarding `Nc1ccc(S(=O)(=O)N2CCOCC2)cc1`, the Kd is > 4 mM (inactive).
For `CC(C)(O)P(C)(=O)c1ccccc1` (stereo not given) the value was > 4 mM (inactive); for `N#Cc1cnn(Cc2ccc(Cl)cc2)c1N`, > 4 mM (inactive).
Regarding `Cc1ccc(S(=O)(=O)/N=C2\NC(=O)CS2)cc1`, the Kd was > 4 mM (inactive).
Next, `CC(=O)O[C@@H]1CC2C(C)(C)[C@H](O)C=C[C@]2(C)C2CC[C@@]3(C)[C@H](c4ccoc4)OC(=O)C4OC43[C@@]21C` (stereo not given in full): > 4 mM (inactive); `Cc1ccc(C(=O)CS(C)(=O)=O)cc1`: > 4 mM (inactive).
For `COc1ccc(-c2cn[nH]c2N)c(OC)c1` the value was > 4 mM (inactive); for `Cc1cc(C)n(CCC(=O)O)n1`, > 4 mM (inactive).
Take `O=c1[nH]c(=O)c2[nH]cnc2[nH]1`: the Kd was > 4 mM (inactive).
For `CC(=O)c1c(O)cc(C)n(Cc2ccccc2)c1=O` the value was > 4 mM (inactive); for `Cc1cc(O)c(NC(=O)c2ccco2)cc1C`, > 4 mM (inactive).
For `CCn1c(C)c(C(C)=O)c(N2CCOCC2)nc1=S` the value was > 4 mM (inactive); for `O=CN1CCN(C(=O)c2ccc(F)cc2)CC1`, > 4 mM (inactive).
Next, `O=C(Nc1c[nH]c(=O)[nH]c1=O)c1ccccc1F`: > 4 mM (inactive); `COc1cccc(S(=O)(=O)Nc2cccnc2)c1`: > 4 mM (inactive); `NC(=O)c1cccc2c(=O)oc3ccccc3c12`: > 4 mM (inactive).
